In US4709032A, “Isoquinolinesulfonamide derivatives” (Asahi Kasei Kogyo Kabushiki Kaisha, priority 1982, dated 1987):

Columns and labels:
[1] = Acute toxicity in rats; settings: in vivo, male rat, dihydrochloride
Experimental: (§1) The acute toxicity of the N-(2-guanidinoethyl)-5-isoquinolinesulfonamide dihydrochloride was measured by giving male ddY-strain mouse and rat an intravenous administration and an oral administration.

[2] = Acute toxicity in mice; settings: in vivo, male mouse, dihydrochloride
Experimental: as §1
The acute toxicity of the hydrochloric acid salt of other compounds was measured by giving male ddY-strain mice an intravenous administration.

Cl.Cl.N=C(N)NCCNS(=O)(=O)c1cccc2cnccc12 [N-(2-guanidinoethyl)-5-isoquinolinesulfonamide dihydrochloride]
LD50 ([1]; intravenous administration): 64 mg/kg | LD50 ([1]; oral administration): 1160 mg/kg | LD50 ([2]; intravenous administration): 59 mg/kg | LD50 ([2]; oral administration): 1480 mg/kg
